This passage reports TGI results from PubChem BioAssay (NCI).

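Test compounds were applied to cells in 96-well plates for 48 hours at 5 doses. TGI is the concentration that stops growth completely.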

Among the test systems are SF-539 CNS; A549 NSCLC; MALME-3M melanoma; SW-620 colon; SN12C renal; A498 renal; SF-268 CNS; HOP-92 NSCLC; OVCAR-8 ovarian; CCRF-CEM leukemia; OVCAR-3 ovarian; TK-10 renal; U251 CNS; NCI-H23 lung; UACC-62 melanoma; HL-60(TB) leukemia; MDA-MB-231 breast; T-47D breast; NCI/ADR-RES ovarian.
Common to all, as to test: NCI tumour cell line growth inhibition, 48 h

In the case of `CCOc1ccc(NC(=O)C(=O)Nn2c(N)nnc2N)cc1`, the TGI with SF-539 CNS, in the test on A549 NSCLC, in the test with MALME-3M melanoma, with SW-620 colon, in the test with SN12C renal and with A498 renal was greater than 100 µM each time. Moreover, the TGI in the test on SF-268 CNS, with HOP-92 NSCLC, in the test on OVCAR-8 ovarian, in the test on CCRF-CEM leukemia, with OVCAR-3 ovarian and in the test on TK-10 renal was greater than 100 µM each time. For the same compound, the TGI with U251 CNS, in the test with NCI-H23 lung, with UACC-62 melanoma, in the test with HL-60(TB) leukemia, in the test on MDA-MB-231 breast and in the test with T-47D breast was greater than 100 µM throughout. The TGI with NCI/ADR-RES ovarian was greater than 100 µM.
Consider `CC(C)(C)OC(=O)N1CCCC1C(=O)NC(c1ccccc1)c1ccccc1` (configuration not stated), for which the TGI in the test with SF-539 CNS, in the test with A549 NSCLC, in the test with MALME-3M melanoma, in the test with SW-620 colon, with SN12C renal and in the test on A498 renal was greater than 100 µM each time. Also, the TGI in the test with SF-268 CNS, in the test with HOP-92 NSCLC, with OVCAR-8 ovarian, with CCRF-CEM leukemia, in the test with OVCAR-3 ovarian and in the test on TK-10 renal was greater than 100 µM throughout. In addition, the TGI with U251 CNS, with NCI-H23 lung, in the test on UACC-62 melanoma, in the test with HL-60(TB) leukemia, in the test on MDA-MB-231 breast and in the test on T-47D breast was greater than 100 µM throughout. In the test with NCI/ADR-RES ovarian, this compound gave a TGI greater than 100 µM.
With `O=[N+]([O-])c1ccc(-c2nn3c(C45CC6CC(CC(C6)C4)C5)nnc3s2)c(Cl)c1`, the TGI in the test with SF-539 CNS, with A549 NSCLC, in the test with MALME-3M melanoma, in the test with SW-620 colon, in the test on SN12C renal and with A498 renal was greater than 100 µM each time. In addition, the TGI in the test on SF-268 CNS, with HOP-92 NSCLC, in the test with OVCAR-8 ovarian, in the test on CCRF-CEM leukemia, in the test on OVCAR-3 ovarian and in the test on TK-10 renal was greater than 100 µM in each case. The TGI in the test on U251 CNS, in the test with NCI-H23 lung, with UACC-62 melanoma, with HL-60(TB) leukemia, in the test on MDA-MB-231 breast and in the test with T-47D breast was greater than 100 µM in each case. Moreover, in the test with NCI/ADR-RES ovarian, the TGI is greater than 100 µM.
With `O=C1NC(N/N=C\c2ccccc2)=N/C1=C/c1ccccc1`, the TGI in the test with SF-539 CNS is 43.5 µM; in the test with A549 NSCLC, greater than 100 µM; with MALME-3M melanoma, greater than 100 µM; with SW-620 colon, greater than 100 µM; in the test on SN12C renal it was greater than 100 µM; in the test with A498 renal it was greater than 100 µM. Besides, the TGI in the test with SF-268 CNS is greater than 100 µM; with HOP-92 NSCLC it was 66.6 µM; with OVCAR-8 ovarian, greater than 100 µM; with CCRF-CEM leukemia it was greater than 100 µM; with OVCAR-3 ovarian it was 94.9 µM; in the test with TK-10 renal, greater than 100 µM. Besides, the TGI with U251 CNS is greater than 100 µM; with NCI-H23 lung, 58.7 µM; in the test on HL-60(TB) leukemia it was greater than 100 µM; with MDA-MB-231 breast, greater than 100 µM; with T-47D breast, greater than 100 µM; with NCI/ADR-RES ovarian it was 85.9 µM.
Regarding `CC(=O)/C(=C\I)c1ccccc1`, the TGI in the test on SF-539 CNS is 34.2 µM; with A549 NSCLC, 30 µM; in the test on MALME-3M melanoma it was 3.33 µM; in the test on SW-620 colon, 2.82 µM; in the test on A498 renal, 32.3 µM; with SF-268 CNS it was 36.5 µM. Moreover, the TGI with HOP-92 NSCLC was 4.74 µM; in the test on OVCAR-8 ovarian it was 3.45 µM; in the test with CCRF-CEM leukemia it was 5.19 µM; in the test on OVCAR-3 ovarian, 3.23 µM; in the test on TK-10 renal it was 26.8 µM; in the test on U251 CNS, 5.37 µM. Moreover, the TGI in the test on NCI-H23 lung amounted to 4.99 µM; in the test on UACC-62 melanoma it was 3.96 µM; in the test on HL-60(TB) leukemia it was 3.49 µM; in the test on MDA-MB-231 breast, 3.74 µM; in the test on T-47D breast, 3.83 µM; with NCI/ADR-RES ovarian, 25 µM.
As for `CN=c1sc2nc(C#N)c(C#N)nc2n1C`, the TGI is greater than 70.9 µM with SF-539 CNS; 33.9 µM in the test with A549 NSCLC; 36.4 µM with MALME-3M melanoma; 36.2 µM in the test on SW-620 colon; greater than 100 µM in the test on SN12C renal; 35.2 µM in the test on A498 renal. Moreover, the TGI in the test with SF-268 CNS was greater than 94.7 µM; with HOP-92 NSCLC, 37.7 µM; in the test on CCRF-CEM leukemia, greater than 100 µM; in the test with OVCAR-3 ovarian it was 72.1 µM; with TK-10 renal it was greater than 63.4 µM; in the test on U251 CNS, 44.9 µM. Further, the TGI in the test with NCI-H23 lung was 37.9 µM; in the test on UACC-62 melanoma it was 40.6 µM; with HL-60(TB) leukemia, greater than 40.4 µM; in the test on MDA-MB-231 breast, greater than 80.7 µM; in the test with T-47D breast, greater than 91.7 µM; in the test on NCI/ADR-RES ovarian it was 59.1 µM.
Regarding `CC(C)(O)c1cc2c(cc1C(C)(C)O)-c1ccccc1-2`, the TGI with SF-539 CNS, in the test on A549 NSCLC, with MALME-3M melanoma, in the test with SW-620 colon, in the test on SN12C renal and in the test on A498 renal was greater than 100 µM in each case. The TGI in the test with SF-268 CNS, with HOP-92 NSCLC, in the test on OVCAR-8 ovarian, with CCRF-CEM leukemia, in the test with OVCAR-3 ovarian and in the test with TK-10 renal was greater than 100 µM in each case. The TGI with U251 CNS, in the test on UACC-62 melanoma, in the test on HL-60(TB) leukemia, in the test with MDA-MB-231 breast, with T-47D breast and in the test on NCI/ADR-RES ovarian was greater than 100 µM in each case.
For the compound `CCOC(=O)c1nc2ccc(C(F)(F)F)cc2nc1Nc1ccc(OC)cc1`, the TGI in the test on SF-539 CNS was 90.1 µM; in the test on A549 NSCLC, greater than 100 µM; in the test on MALME-3M melanoma, greater than 100 µM; in the test on SW-620 colon it was greater than 100 µM; with A498 renal, greater than 100 µM; in the test with SF-268 CNS, greater than 100 µM. Also, the TGI was 49.2 µM with HOP-92 NSCLC; greater than 100 µM in the test on OVCAR-8 ovarian; greater than 100 µM in the test on CCRF-CEM leukemia; greater than 100 µM with OVCAR-3 ovarian; greater than 100 µM in the test with TK-10 renal; greater than 100 µM in the test on U251 CNS. In addition, the TGI in the test with NCI-H23 lung is greater than 100 µM; with UACC-62 melanoma, greater than 100 µM; in the test on HL-60(TB) leukemia, greater than 100 µM; in the test with MDA-MB-231 breast it was 50.6 µM; in the test with T-47D breast, greater than 100 µM; in the test on NCI/ADR-RES ovarian it was greater than 100 µM.
